Test results: PubChem BioAssay AID1259408 (Genetic Toxicology Data Bank (GENE-TOX), 2018)
Activity calls are given as the source filed them. The rule behind the calls is not given here.

System: GENE-TOX genotoxicity assays, various organisms and cells
Experiment: GENE-TOX mutagenicity studies
Settings: for call: Assay Type: In vivo carcinogenicity studies
[1] = Species/Cell Type: Drosophila melanogaster, Assay Type: Sex-linked recessive lethal gene mutation, Assay Code: SRL+, Evaluation Type: Evaluation A (Pre-1980)
[2] = Species/Cell Type: Escherichia coli polA (W3119 vs P3478), Assay Type: Rec-assay, DNA effects (bacterial DNA repair), Assay Code: RE1+, Evaluation Type: Evaluation A (Pre-1980)
[3] = Species/Cell Type: Neurospora crassa, Assay Type: Reverse gene mutation, Assay Code: NER+, Evaluation Type: Evaluation A (Pre-1980)
[4] = Species/Cell Type: Salmonella typhimurium (one or more of the five standard strains: TA98, TA100, TA1535, TA1537, and TA1538), Assay Type: Histidine reverse gene mutation, Ames assay, Assay Code: SAL+, Evaluation Type: Evaluation A (Pre-1980)
[5] = Species/Cell Type: Schizosaccharomyces pombe, Assay Type: Reverse gene mutation, Assay Code: YEZ+, Evaluation Type: Evaluation A (Pre-1980)
[6] = Species/Cell Type: Nonhuman, Assay Code: CCG+, Evaluation Type: Evaluation A (Pre-1980)
[7] = Species/Cell Type: Mammalian polychromatic erythrocytes, Assay Type: Micronucleus test, chromosome aberrations, Assay Code: MNTT, Evaluation Type: Evaluation B (Post-1980)
[8] = Species/Cell Type: Human lymphocytes, Assay Type: Sister-chromatid exchange (SCE) in vitro, Assay Code: SCL+D, Dose Response: With dose response, Evaluation Type: Evaluation B (Post-1980)
[9] = Species/Cell Type: Human, Assay Type: Sister-chromatid exchange (SCE) in vitro, Assay Code: SC1+D, Dose Response: With dose response, Evaluation Type: Evaluation B (Post-1980)
[10] = Species/Cell Type: Nonhuman, Assay Type: Sister-chromatid exchange (SCE) in vitro, Assay Code: SC2+D, Dose Response: With dose response, Evaluation Type: Evaluation B (Post-1980)
[11] = Species/Cell Type: Salmonella typhimurium (one or more of the five standard strains: TA98, TA100, TA1535, TA1537, and TA1538), Assay Type: Histidine reverse gene mutation, Ames assay, Assay Code: SALT, Evaluation Type: Evaluation A (Pre-1980)
[12] = Species/Cell Type: Escherichia coli polA (W3119 vs P3478), Assay Type: Rec-assay, DNA effects (bacterial DNA repair), Assay Code: RE1T, Evaluation Type: Evaluation A (Pre-1980)
[13] = Species/Cell Type: Human diploid fibroblasts, Assay Type: Unscheduled DNA synthesis (UDS) in vitro, DNA effects, Assay Code: UDH-, Evaluation Type: Evaluation A (Pre-1980)
[14] = Species/Cell Type: Nonhuman, Assay Code: CCG+L, Evaluation Type: Evaluation A (Pre-1980)
[15] = Species/Cell Type: Saccharomyces cerevisiae, Assay Type: Mitotic recombination or gene conversion, Assay Code: YEH-, Evaluation Type: Evaluation A (Pre-1980)
[16] = Species/Cell Type: Human, Assay Type: Sister-chromatid exchange (SCE) in vitro, Assay Code: SC1+, Evaluation Type: Evaluation B (Post-1980)

CCOC(=O)N(CC)N=O
mutagenic call (Species/Cell Type: Arabidopsis species, Assay Type: Gene mutation, Assay Code: ARM+D, Dose Response: With dose response, Evaluation Type: Evaluation A (Pre-1980)): active; positive
mutagenic call (Species/Cell Type: Drosophila melanogaster, Assay Type: Aneuploidy, partial sex chromosome loss, chromosome aberrations, Assay Code: DAP+MDAC+M, Dose Response: With dose response, Evaluation Type: Evaluation A (Pre-1980)): active; positive
mutagenic call (Species/Cell Type: Drosophila melanogaster, Assay Type: Aneuploidy, sex chromosome gain, chromosome aberrations, Assay Code: DAGT, Evaluation Type: Evaluation A (Pre-1980)): no conclusion
mutagenic call [1]: active; positive
mutagenic call [2]: active; positive
mutagenic call (Species/Cell Type: Hordeum vulgare (barley), Assay Type: Gene mutation, Assay Code: HOM+D, Dose Response: With dose response, Evaluation Type: Evaluation A (Pre-1980)): active; positive
mutagenic call [3]: active; positive
mutagenic call (Species/Cell Type: Saccharomyces cerevisiae, Assay Type: Mitotic recombination or gene conversion, Assay Code: YEC+, Evaluation Type: Evaluation A (Pre-1980)): active; positive
mutagenic call [4]: active; positive
mutagenic call [5]: active; positive

O=C1c2ccccc2C(=O)c2c(NCCNCCO)ccc(O)c21
mutagenic call (Species/Cell Type: Nonhuman, Assay Type: Sister-chromatid exchange (SCE) in vitro, Assay Code: SC2+, Evaluation Type: Evaluation B (Post-1980)): active; positive

CN[C@H]1C[C@H](O[C@H]2C[C@](O)(C(C)=O)Cc3c(O)c4c(c(O)c32)C(=O)c2c(OC)cccc2C4=O)O[C@@H](C)[C@H]1O
mutagenic call (Species/Cell Type: Salmonella typhimurium (one or more of the five standard strains: TA98, TA100, TA1535, TA1537, and TA1538), Assay Type: Histidine reverse gene mutation, Ames assay, Assay Code: SAL+*, Activation: With metabolic activation, Evaluation Type: Evaluation A (Pre-1980)): active; positive

Cc1cc(=O)[nH]c(=S)[nH]1
call [6]: active; positive

N#Cc1cc(I)c(O)c([N+](=O)[O-])c1
mutagenic call [7]: no conclusion

OO
mutagenic call [2]: active; positive
mutagenic call (Species/Cell Type: Human diploid fibroblasts, Assay Type: Unscheduled DNA synthesis (UDS) in vitro, DNA effects, Assay Code: UDH+, Evaluation Type: Evaluation A (Pre-1980)): active; positive
mutagenic call [8]: active; positive
mutagenic call [9]: active; positive
mutagenic call [3]: active; positive
mutagenic call [10]: active; positive
mutagenic call [11]: no conclusion
mutagenic call [5]: active; positive
mutagenic call (Species/Cell Type: Vicia faba, Assay Type: Chromosome aberrations, Assay Code: VIC-, Evaluation Type: Evaluation A (Pre-1980)): inactive; negative

CC1(C)N=C(N)N=C(N)N1OCCCOc1cc(Cl)c(Cl)cc1Cl
mutagenic call [11]: no conclusion

CN(C)C(=O)Nc1ccc(Cl)cc1
mutagenic call (Species/Cell Type: Bacillus subtilis (H17 vs M45), Assay Type: Rec-assay, spot test, DNA effects (bacterial DNA repair), Assay Code: REWT, Evaluation Type: Evaluation A (Pre-1980)): no conclusion
mutagenic call (Species/Cell Type: Drosophila melanogaster, Assay Type: Sex-linked recessive lethal gene mutation, Assay Code: SRLT, Evaluation Type: Evaluation A (Pre-1980)): no conclusion
mutagenic call (Species/Cell Type: Escherichia coli WP2 UVRA, Assay Type: Tryptophan reverse gene mutation, Assay Code: WPU-*, Activation: With metabolic activation, Evaluation Type: Evaluation A (Pre-1980)): inactive; negative
mutagenic call [12]: no conclusion
mutagenic call (Species/Cell Type: Hordeum vulgare (barley), Assay Type: Chromosome aberrations, Assay Code: HOC+, Evaluation Type: Evaluation A (Pre-1980)): active; positive
mutagenic call [13]: inactive; negative
call [14]: active; positive
mutagenic call [15]: inactive; negative

CS(=O)(=O)OCC#CCOS(C)(=O)=O
mutagenic call [1]: active; positive

Oc1cc2cccc3ccc4c5ccccc5cc1c4c32
mutagenic call (Species/Cell Type: Chinese hamster lung (V79) cells, Assay Type: Forward gene mutation at the HPRT or ouabain locus, Assay Code: V79-, Evaluation Type: Evaluation A (Pre-1980)): inactive; negative
call (Species/Cell Type: Nonhuman, Assay Code: CCGT, Evaluation Type: Evaluation A (Pre-1980)): no conclusion
mutagenic call [11]: no conclusion

CC(C)=CC1C(C(=O)O)C1(C)C (stereo not given)
mutagenic call [13]: inactive; negative
mutagenic call [15]: inactive; negative

CCC(C)Br (stereo not given)
mutagenic call [12]: no conclusion

Nc1nc(-c2ccccc2)cs1
mutagenic call (Species/Cell Type: Bacillus subtilis (H17 vs M45), Assay Type: Rec-assay, spot test, DNA effects (bacterial DNA repair), Assay Code: REW-, Evaluation Type: Evaluation A (Pre-1980)): inactive; negative

Cc1nc(N)cc2c1[nH]c1ccccc12
mutagenic call (Species/Cell Type: Human lymphocytes, Assay Type: Sister-chromatid exchange (SCE) in vitro, Assay Code: SCL+, Evaluation Type: Evaluation B (Post-1980)): active; positive
mutagenic call [16]: active; positive
mutagenic call [10]: active; positive

ClC1=C(Cl)C2(Cl)C3C(Cl)C(Cl)CC3C1(Cl)C2(Cl)Cl (stereo not given)
mutagenic call (Species/Cell Type: Chinese hamster lung (V79) cells, Assay Type: Forward gene mutation at the HPRT or ouabain locus, Assay Code: V79+, Evaluation Type: Evaluation A (Pre-1980)): active; positive
call [14]: active; positive
mutagenic call (Species/Cell Type: Rodents, Sex: Male, Assay Type: Dominant lethal test, Assay Code: DLTT, Evaluation Type: Evaluation A (Pre-1980)): no conclusion
mutagenic call (Species/Cell Type: Zea mays (corn), Assay Type: Gene mutation, Assay Code: ZEM+, Evaluation Type: Evaluation A (Pre-1980)): active; positive

O=P([O-])([O-])[O-].O=P([O-])([O-])[O-].[Pb+2].[Pb+2].[Pb+2]
call [6]: active; positive

O=[N+]([O-])O.[Cr]
mutagenic call [11]: no conclusion

CCCNP(=O)(N1CC1)N1CC1
mutagenic call [1]: active; positive
mutagenic call (Species/Cell Type: Nonhuman, Assay Type: Chromosome aberrations in vitro, Assay Code: CY&+, Evaluation Type: Evaluation A (Pre-1980)): active; positive
mutagenic call [5]: active; positive

CCOC(=O)c1cc2cc3ccoc3cc2oc1=O
mutagenic call [16]: active; positive

O=c1cc(-c2ccccc2)oc2c1ccc1ccccc12
mutagenic call [8]: active; positive
mutagenic call [9]: active; positive
mutagenic call (Species/Cell Type: Human, Assay Type: Sister-chromatid exchange (SCE) in vitro, Assay Code: SC1T, Evaluation Type: Evaluation A (Pre-1980)): no conclusion
mutagenic call [7]: no conclusion
mutagenic call (Species/Cell Type: Syrian hamster embryo (SA7/SHE) cells, Assay Type: Cell transformation, viral enhanced, Assay Code: CT7-, Evaluation Type: Evaluation A (Pre-1980)): inactive; negative

Cc1cc(O)c2c(c1O)C(=O)c1c(O)ccc(O)c1C2=O
mutagenic call [4]: active; positive

Nc1nnc(-c2ccc([N+](=O)[O-])o2)s1
call [6]: active; positive

COc1cc(/C=N/NC(=O)COc2ccc(Br)cc2CN(C)C)ccc1O
mutagenic call (Species/Cell Type: Saccharomyces cerevisiae, Assay Type: Reverse gene mutation, Assay Code: YERT, Evaluation Type: Evaluation A (Pre-1980)): no conclusion

NC(=S)Nc1ccccc1
call (Species/Cell Type: Nonhuman, Assay Code: CCG-L, Evaluation Type: Evaluation A (Pre-1980)): inactive; negative

OOC1CCCc2ccccc21 (stereo not given)
mutagenic call (Species/Cell Type: Saccharomyces cerevisiae, Assay Type: Mitotic recombination or gene conversion, Assay Code: YEC-, Evaluation Type: Evaluation A (Pre-1980)): inactive; negative

O=S1OCC2C(CO1)C1(Cl)C(Cl)=C(Cl)C2(Cl)C1(Cl)Cl (stereo not given)
mutagenic call [7]: no conclusion

C[n+]1c(-c2ccc(N)cc2)c2cc(N)ccc2c2ccc(N)cc21
mutagenic call [4]: active; positive
